The values that follow come from publication PMC10112521, “High-throughput AR dimerization assay identifies androgen disrupting chemicals and metabolites” (Frontiers in Toxicology, 2023).

As a reminder, the AC50 is the midpoint of the concentration-response curve, whichever way the signal moves.

Like-named read-outs stand apart in the source and are kept apart here.

Data set [1] relates to AR2 cells (HepG2-AR2). The data set can be described thus: Alamar Blue (resazurin) post hoc cell viability / cytotoxicity assay in AR2 cells. The settings on record: spid Viability, sheet antagonist_fits; for hill_tp (Hill model top): 0 where win_model is Constant. Background: Alamar Blue is a resazurin reagent that responds to reducing activity.
Protocol: (§1) For antagonist mode and cytotoxicity data, well-level normalized response (resp) was calculated as: resp=100 * RLU−bval/pval−bval where pval is the median RLU value of the MEC positive control wells (minimum four wells).
For data set [2], the system named is AR2 cells (HepG2-AR2).
Protocol: as §1
Data set [3] relates to AR. Further details: method as in Kleinstreuer et al., 2017. The settings on record: 2017, cited from earlier work; for Agonist reference: AR agonist reference class ref Kleinstreuer et al.; for Antagonist reference: AR antagonist reference class ref Kleinstreuer et al.
For data set [4], the target named is T1, human AR (Homo sapiens, UniProt P10275).
T1 sequence (P10275 1-920) 1: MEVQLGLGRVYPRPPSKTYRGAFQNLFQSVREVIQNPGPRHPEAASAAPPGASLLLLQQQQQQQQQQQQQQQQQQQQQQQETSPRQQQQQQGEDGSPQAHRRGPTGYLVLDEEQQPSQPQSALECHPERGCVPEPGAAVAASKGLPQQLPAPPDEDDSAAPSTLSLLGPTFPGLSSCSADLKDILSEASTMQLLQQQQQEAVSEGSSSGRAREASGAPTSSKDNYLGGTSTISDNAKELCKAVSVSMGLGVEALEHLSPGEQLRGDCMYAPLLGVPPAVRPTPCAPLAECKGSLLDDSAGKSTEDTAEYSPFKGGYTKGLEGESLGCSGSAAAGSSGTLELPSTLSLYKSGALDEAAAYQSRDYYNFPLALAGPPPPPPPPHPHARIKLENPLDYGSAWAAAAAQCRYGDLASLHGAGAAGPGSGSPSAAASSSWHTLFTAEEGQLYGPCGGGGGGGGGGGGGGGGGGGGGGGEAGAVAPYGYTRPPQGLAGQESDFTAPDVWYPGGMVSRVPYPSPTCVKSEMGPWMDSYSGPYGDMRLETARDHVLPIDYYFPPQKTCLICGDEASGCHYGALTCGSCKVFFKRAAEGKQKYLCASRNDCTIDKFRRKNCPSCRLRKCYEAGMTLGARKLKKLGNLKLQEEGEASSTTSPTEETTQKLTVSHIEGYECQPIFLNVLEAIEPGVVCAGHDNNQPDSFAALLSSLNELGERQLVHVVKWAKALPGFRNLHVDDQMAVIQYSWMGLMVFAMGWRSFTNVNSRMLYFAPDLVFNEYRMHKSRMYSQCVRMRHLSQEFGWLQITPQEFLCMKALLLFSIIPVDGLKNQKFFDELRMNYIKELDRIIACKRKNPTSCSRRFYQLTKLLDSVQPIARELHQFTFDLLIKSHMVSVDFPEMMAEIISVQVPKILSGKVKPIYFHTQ
T1 sequence (P10275 1-920) 2: T1 sequence (P10275 1-920) 1
The data set can be described thus: AR2 assay, antagonist mode: disruption of R1881 (10 nM)-induced AR homodimerization in HepG2-AR2 cells. It counts as cell-based.

The target of data set [5] is T1, human AR. The data set can be described thus: AR2 assay, agonist mode: ligand-dependent AR homodimerization (NanoBiT luciferase complementation) in stable HepG2-AR2 cells.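 On hill tp: Log2 fold change of luminescence over DMSO vehicle wells.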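 On max med: Log2 fold change of luminescence over DMSO vehicle wells.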 In kind it is cell-based. The following applies: for hill_gw: Hill model gain slope (Hill coefficient); for hill_gw / hill_tp: 0 given where win_model is Constant; for hill_tp: Hill model top (efficacy); for win_model: winning concentration-response model (Constant, Hill, Gain-Loss).

For data set [6], the target named is T1, human AR. The data set can be described thus: cell-based. Further details: species or system AR2 cells (HepG2-AR2); NanoLuc complementation AR homodimerization, agonist mode, luminescence gain, AC50 by Hill fit. The following applies: hill_ga, agonist mode, 18 h, no CYP expressed.
The target in data set [7] is T1, human AR. As to the kind of experiment: cell-based. The following applies: hill_ga, antagonist mode, 10 nM agonist stimulus, 18 h, no CYP expressed. Also on record: species or system AR2 cells (HepG2-AR2); NanoLuc complementation AR homodimerization, antagonist mode, loss of agonist-induced luminescence, AC50 by Hill fit.
The mark [8] stands for this setting: spid AR_antagonist, sheet antagonist_fits.
[9] abbreviates: spid AR_antagonist, sheet antagonist_fits, 0 where win_model is Constant.
The mark [10] stands for this setting: sheet agonist_fits, maximum median response.

In the case of `CCNc1nc(Cl)nc(NC(C)C)n1` [Atrazine], in data set [1], the “max_med (maximum median response)” value is 11.6649 and the “hill_tp (Hill model top)” value worked out at 7.792. In data set [2], the “hill_ga (Hill model log AC50)” value is listed as 1.242. Moreover, in data set [3], the Agonist reference result is recorded as “Inactive” and the Antagonist reference result is given as “Inactive”. Also, in data set [3] (Supplementary Table S1), the Agonist reference entry is “Inactive” and the Antagonist reference result is recorded as “Inactive”.
In the case of `OC(c1ccc(Cl)cc1)(c1cncnc1)c1ccccc1Cl` (centres unmarked) [Fenarimol], in data set [1], the “max_med (maximum median response)” value was 16.9049 and the “hill_tp (Hill model top)” value worked out at 0. For the same compound, the “hill_ga (Hill model log AC50)” value in data set [2] was determined as 0. Further, in data set [3], the Agonist reference result was “Inactive” and the Antagonist reference result is on record as “Weak”. Further, the Antagonist reference entry in data set [3] (Supplementary Table S1) is “Weak”.
In the case of `CCCN(CCC)c1c([N+](=O)[O-])cc(C(F)(F)F)cc1[N+](=O)[O-]` [Trifluralin], in data set [4], the “hill_tp (Hill model top)” value was found to be 55.7657 and the “max_med (maximum median response)” value was determined as 39.0604. The “win_model (winning concentration-response model)” value in data set [4] (setting [8]) was “Hill”. In addition, in data set [4] (setting [9]), the “hill_gw (Hill model slope)” value came to 1.383. In data set [5] (sheet agonist_fits), the hill_gw stood at 0.3, the hill_tp turned out to be 0.2593 and the win_model entry is reported as “Gain-Loss”. The compound further returned a max_med in data set [5] (setting [10]) of 0.1998. The same compound had an AC50 in data set [6] (spid=No_RNA) above 99.9 µM. Also, in data set [1], the “max_med (maximum median response)” value came out at 33.7321 and the “hill_tp (Hill model top)” value worked out at 18.5971. This compound also had an AC50 in data set [7] (spid=Bgal) of 52.2 µM. In data set [7] (spid=No_RNA), this compound showed an AC50 of 47.5 µM.
Regarding `Clc1ccc(C(c2ccccc2Cl)C(Cl)(Cl)Cl)cc1` (centres unmarked) [o,p'-DDT], in data set [2], the “hill_ga (Hill model log AC50)” value was found to be 1.826. Besides, in data set [2] (human), the “hill_tp (Hill model top of curve)” value is 110.666 and the “max_med (maximum median response)” value stood at 83.8839. Also, in data set [3], the Agonist reference result was “Inactive” and the Antagonist reference entry is reported as “Weak”. Also, the Antagonist reference entry in data set [3] (Supplementary Table S1) is “Weak”.
Turning to `CCNc1nc(Cl)nc(NCC)n1` [Simazine], in data set [1], the “max_med (maximum median response)” value is listed as 12.6117 and the “hill_tp (Hill model top)” value is 7.295. Further, the “hill_ga (Hill model log AC50)” value in data set [2] is -0.7451. Moreover, in data set [3], the Antagonist reference entry is “Inactive”.
On to `CC1(C)C(C=C(Cl)Cl)C1C(=O)OC(C#N)c1ccc(F)c(Oc2ccccc2)c1` (centres unmarked) [Cyfluthrin], for which, in data set [1], the “max_med (maximum median response)” value was determined as 9.8887 and the “hill_tp (Hill model top)” value was determined as 0. Further, the “hill_ga (Hill model log AC50)” value in data set [2] came out at 0. Moreover, in data set [3], the Agonist reference entry was “Inactive”.
Turning to `O=C1c2ccccc2C(=O)N1SC(Cl)(Cl)Cl` [Folpet], in data set [1], the “max_med (maximum median response)” value came to 26.2456 and the “hill_tp (Hill model top)” value is recorded as 26.8665. For the same compound, the “hill_ga (Hill model log AC50)” value in data set [2] was 1.483.
Turning to `CCCSP(=O)(OCC)SCCC` [Ethoprop], in data set [4] (setting [8]), the “max_med (maximum median response)” value turned out to be 30.1172 and the “win_model (winning concentration-response model)” value was “Hill”. In data set [4] (setting [9]), the “hill_gw (Hill model slope)” value stood at 1.091 and the “hill_tp (Hill model top)” value is on record as 36.6932. In addition, the max_med in data set [5] is recorded as -0.01755. In addition, in data set [6] (spid=Bgal), the AC50 is above 99.9 µM. In data set [1], the “max_med (maximum median response)” value was found to be 22.3553 and the “hill_tp (Hill model top)” value is 18.1513.
On to `N#Cc1c(Cl)cccc1Cl` [Dichlobenil], for which, in data set [1], the “max_med (maximum median response)” value is recorded as 10.2924 and the “hill_tp (Hill model top)” value came out at 0. The “hill_ga (Hill model log AC50)” value in data set [2] was 0.
Regarding `Nc1nc[nH]n1` [Amitrole], in data set [1], the “max_med (maximum median response)” value is 20.9539 and the “hill_tp (Hill model top)” value stood at 26.1033. Besides, in data set [2], the “hill_ga (Hill model log AC50)” value is given as 1.008.
`CCOC(=O)c1ccc(O)cc1` [Ethylparaben]: in data set [1], the “max_med (maximum median response)” value is listed as 6.202 and the “hill_tp (Hill model top)” value was found to be 0. Besides, the “hill_ga (Hill model log AC50)” value in data set [2] worked out at 0.
For `CNc1cnn(-c2cccc(C(F)(F)F)c2)c(=O)c1Cl` [Norflurazon], in data set [1], the “max_med (maximum median response)” value is listed as 4.6212 and the “hill_tp (Hill model top)” value is listed as 0. Further, the “hill_ga (Hill model log AC50)” value in data set [2] is listed as 0.
Consider `CCC(C)(c1ccc(O)cc1)c1ccc(O)cc1` [Bisphenol B], for which, in data set [1], the “max_med (maximum median response)” value came out at 49.2471 and the “hill_tp (Hill model top)” value was 49.223. For the same compound, the “hill_ga (Hill model log AC50)” value in data set [2] is 1.739.
Take `C=CC1(C)OC(=O)N(c2cc(Cl)cc(Cl)c2)C1=O` (centres unmarked) [Vinclozolin]: the “max_med (maximum median response)” value in data set [1] was determined as 15.9864. Further, the “hill_tp (Hill model top)” value in data set [1] amounted to 12.9726. The “hill_ga (Hill model log AC50)” value in data set [2] is -3.255. The Antagonist reference entry in data set [3] and in data set [3] (Supplementary Table S1) was “Weak” throughout.
Regarding `CC(C)NC(=O)N1CC(=O)N(c2cc(Cl)cc(Cl)c2)C1=O` [Iprodione], in data set [1], the “max_med (maximum median response)” value turned out to be 9.628 and the “hill_tp (Hill model top)” value is recorded as 0. Moreover, the “hill_ga (Hill model log AC50)” value in data set [2] amounted to 0. Moreover, in data set [3] (Supplementary Table S1), the Agonist reference entry was “Inactive”.
For `CC(C)(C)C(=O)C(Oc1ccc(Cl)cc1)n1cncn1` (centres unmarked) [Triadimefon], in data set [1], the “max_med (maximum median response)” value is reported as 19.918 and the “hill_tp (Hill model top)” value is listed as 58.3985. Besides, the “hill_ga (Hill model log AC50)” value in data set [2] is given as -3.878.
On to `CC1(C)C(C=C(Cl)Cl)C1C(=O)OC(C#N)c1cccc(Oc2ccccc2)c1` (centres unmarked) [Cypermethrin], for which, in data set [1], the “max_med (maximum median response)” value is on record as 5.609 and the “hill_tp (Hill model top)” value is reported as 0. The “hill_ga (Hill model log AC50)” value in data set [2] turned out to be 0. Further, in data set [3], the Agonist reference entry was “Inactive”.
With `O=[N+]([O-])c1c(Cl)c(Cl)c(Cl)c(Cl)c1Cl` [Pentachloronitrobenzene], in data set [4] (setting [8]), the “max_med (maximum median response)” value was determined as 40.8543 and the “win_model (winning concentration-response model)” value is “Hill”. In data set [4] (setting [9]), the “hill_gw (Hill model slope)” value was 8 and the “hill_tp (Hill model top)” value was 49.0252. In addition, in data set [5] (sheet agonist_fits), the hill_gw came to 5.807, the hill_tp was 0.296 and the win_model entry is “Gain-Loss”. Besides, in data set [5] (setting [10]), the max_med was found to be 0.2467. Further, in data set [6] (spid=Bgal), the AC50 was above 99.9 µM. Besides, in data set [1], the “max_med (maximum median response)” value stood at 37.6424 and the “hill_tp (Hill model top)” value was 16.6244.
For the compound `O=c1cc(-c2ccc(O)cc2)oc2cc(O)cc(O)c12` [Apigenin], in data set [1], the “max_med (maximum median response)” value amounted to 44.3137 and the “hill_tp (Hill model top)” value turned out to be 57.4844. In addition, in data set [2], the “hill_ga (Hill model log AC50)” value is given as 1.291.
As for `Oc1ccc(C(c2ccc(O)cc2)(C(F)(F)F)C(F)(F)F)cc1` [Bisphenol AF], in data set [1], the “max_med (maximum median response)” value is reported as 99.8528 and the “hill_tp (Hill model top)” value is listed as 100.2. For the same compound, the “hill_ga (Hill model log AC50)” value in data set [2] is 1.485.
In the same order, the values of `C#CCOS(=O)OC1CCCCC1Oc1ccc(C(C)(C)C)cc1` (centres unmarked) [Propargite] are 5.892, 5.298 and 0.5083.
For the compound `ClC(Cl)=C(c1ccc(Cl)cc1)c1ccc(Cl)cc1` [p,p'-DDE], the “hill_ga (Hill model log AC50)” value in data set [2] was found to be 1.812. Moreover, the Antagonist reference entry in data set [3] (Supplementary Table S1) was “Weak”.
